Test [1] has as its target T1, D3R in the Islands of Calleja (Mus musculus, UniProt P30728).
T1 construct: from tissue; host or cells: mouse brain (Islands of Calleja, ventral and dorsal striatum); acute slices or fresh-frozen cryosections
In words: In vivo competitive drug-binding measurement (cariprazine i.p., then Fluo-CAR labeling of acute slices). Conditions: cariprazine 1 mg/kg i.p., 2 h. The method, then:
Male 26–33-days-old C57BL/6 mice were intraperitoneally injected with 1 mg/kg cariprazine or an equal volume of vehicle (0.9% saline + 1% Tween80). After injection (2 h), pharmacological tissue labeling was carried out similarly to the previous experiments. […] Slices were rinsed three times with ACSF and fixed overnight with 4% PFA. Slices were either processed for correlated confocal and STORM imaging or for conventional confocal imaging.

In another test the target is T2, D3R (Homo sapiens, UniProt P35462).
T2 construct: expressed in transfected cells; host or cells: HEK 293 (microscopy), HEK 293T (BRET)
Kind of test: BRET-based Gi1-activation assay in HEK 293T cells. The test is classed as cell-based. The source says:
The next day we replaced the medium with modified Kreb’s Ringer medium and performed BRET experiments using a Thermo Scientific Varioskan Flash multimode plate reader similarly as previously described. […] To calculate the BRET response, we first subtracted the BRET ratio of cells coexpressing the untagged β1 subunit from the BRET ratio of cells coexpressing Venus-β1. Then we corrected the baseline BRET ratio and subtracted the BRET ratio of vehicle-treated cells from the average BRET ratio of stimulus-treated cells. All BRET measurements were performed in triplicates.
On the technique in general: Bioluminescence resonance energy transfer reports proximity on the nanometre scale.

Another test concerns the target T3, D2R (Homo sapiens, UniProt P14416).
T3 construct: expressed in transfected cells; host or cells: HEK 293
In words: Fluo-cariprazine PharmacoSTORM signal in D2R-expressing cells (Supplementary Fig. S6d). It is filed as binding.

Another test deals with α7-nAchR-HA (Homo sapiens, UniProt P36544).
The next test deals with T4, MAGL (Homo sapiens, UniProt Q99685).
T4 sequence (Q99685 1-303): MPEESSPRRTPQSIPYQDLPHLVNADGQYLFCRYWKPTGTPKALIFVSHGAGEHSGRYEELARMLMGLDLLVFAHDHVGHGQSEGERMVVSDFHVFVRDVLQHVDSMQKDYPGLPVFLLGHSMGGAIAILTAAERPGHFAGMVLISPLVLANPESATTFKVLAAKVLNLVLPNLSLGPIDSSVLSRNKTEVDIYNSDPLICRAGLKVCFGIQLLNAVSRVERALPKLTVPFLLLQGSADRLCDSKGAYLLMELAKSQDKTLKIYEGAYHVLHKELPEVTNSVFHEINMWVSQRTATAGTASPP
In words: 2-Arachidonoylglycerol-based fluorescence assay for DH-463. It is filed as biochemical. The method, then: The natural substrate assays were performed as reported previously[80],[81]. All chemicals and reagents were purchased from Sigma-Aldrich, unless mentioned otherwise. […] 2-Arachidonoylglycerol was from Cayman Chemical. All measurements were performed in n = 4 or n = 8 for controls, with Z’ ≥ 0.6.

For test [2], the target named is T5, CB1R (Homo sapiens, UniProt P21554). It is filed as cell-based. Also on record: expressed in transfected cells; host or cells: HEK 293T. The settings on record: for cAMP reduction (%): single experiments.
In test [3] the target is T5, CB1R. Kind of test: Ligand-binding assay, affinity of fluo-cannabinoid for CB1R (Supplementary Table S1).
The mark [4] stands for this setting: log(agonist) vs. response, variable slope.

Several values for one entry are separate records, joined by “and”; a condition that tells them apart may be missing. Identical values can stand only once. Like-named read-outs stand apart in the source and are kept apart here.

T3 sequence (P14416 whole entry): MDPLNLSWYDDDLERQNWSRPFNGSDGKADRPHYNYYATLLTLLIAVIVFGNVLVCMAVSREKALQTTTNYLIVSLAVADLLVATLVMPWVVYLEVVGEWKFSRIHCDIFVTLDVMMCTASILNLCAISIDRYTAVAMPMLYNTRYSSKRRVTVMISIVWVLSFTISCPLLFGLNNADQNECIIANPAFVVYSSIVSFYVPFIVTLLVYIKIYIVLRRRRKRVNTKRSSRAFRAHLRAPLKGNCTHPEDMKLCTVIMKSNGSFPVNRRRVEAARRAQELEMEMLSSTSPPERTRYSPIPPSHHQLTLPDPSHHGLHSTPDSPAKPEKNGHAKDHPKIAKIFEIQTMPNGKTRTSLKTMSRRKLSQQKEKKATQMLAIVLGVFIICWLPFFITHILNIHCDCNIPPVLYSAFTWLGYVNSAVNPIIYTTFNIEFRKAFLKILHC
T2 sequence (P35462 whole entry): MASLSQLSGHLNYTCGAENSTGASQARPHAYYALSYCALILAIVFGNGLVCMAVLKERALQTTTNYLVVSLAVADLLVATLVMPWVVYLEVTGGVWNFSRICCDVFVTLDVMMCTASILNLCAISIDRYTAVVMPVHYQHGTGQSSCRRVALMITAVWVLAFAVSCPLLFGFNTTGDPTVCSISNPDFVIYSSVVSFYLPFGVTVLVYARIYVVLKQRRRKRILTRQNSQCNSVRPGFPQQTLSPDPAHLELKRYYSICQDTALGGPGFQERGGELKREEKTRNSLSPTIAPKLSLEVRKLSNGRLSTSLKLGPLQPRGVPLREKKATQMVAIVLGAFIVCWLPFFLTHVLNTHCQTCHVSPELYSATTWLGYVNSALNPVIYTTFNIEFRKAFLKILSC
T1 sequence (P30728 whole entry): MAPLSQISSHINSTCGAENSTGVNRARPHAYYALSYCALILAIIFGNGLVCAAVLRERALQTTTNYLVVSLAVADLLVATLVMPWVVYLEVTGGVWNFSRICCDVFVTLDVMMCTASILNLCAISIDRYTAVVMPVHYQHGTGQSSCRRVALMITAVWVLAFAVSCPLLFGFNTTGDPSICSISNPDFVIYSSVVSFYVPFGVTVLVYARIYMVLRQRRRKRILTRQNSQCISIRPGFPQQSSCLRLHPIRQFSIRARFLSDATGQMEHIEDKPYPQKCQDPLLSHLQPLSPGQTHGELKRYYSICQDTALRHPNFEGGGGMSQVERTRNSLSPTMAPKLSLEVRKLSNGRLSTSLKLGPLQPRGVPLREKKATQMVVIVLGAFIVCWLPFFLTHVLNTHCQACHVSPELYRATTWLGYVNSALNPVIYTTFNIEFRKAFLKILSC
T5 sequence (P21554 whole entry): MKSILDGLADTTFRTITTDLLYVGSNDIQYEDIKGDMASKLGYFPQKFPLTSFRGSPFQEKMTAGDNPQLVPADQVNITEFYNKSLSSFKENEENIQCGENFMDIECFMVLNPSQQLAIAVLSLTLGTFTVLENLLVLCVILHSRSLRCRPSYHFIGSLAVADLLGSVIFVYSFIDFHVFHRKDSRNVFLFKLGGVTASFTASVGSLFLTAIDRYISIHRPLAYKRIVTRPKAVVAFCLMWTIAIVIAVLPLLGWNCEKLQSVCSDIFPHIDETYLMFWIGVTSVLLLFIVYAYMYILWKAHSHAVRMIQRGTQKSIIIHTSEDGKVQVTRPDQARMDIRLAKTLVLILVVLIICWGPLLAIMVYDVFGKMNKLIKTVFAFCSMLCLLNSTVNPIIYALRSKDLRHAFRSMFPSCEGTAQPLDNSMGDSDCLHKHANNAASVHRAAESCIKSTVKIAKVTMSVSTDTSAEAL
α7-nAchR-HA, sequence (P36544 23-502): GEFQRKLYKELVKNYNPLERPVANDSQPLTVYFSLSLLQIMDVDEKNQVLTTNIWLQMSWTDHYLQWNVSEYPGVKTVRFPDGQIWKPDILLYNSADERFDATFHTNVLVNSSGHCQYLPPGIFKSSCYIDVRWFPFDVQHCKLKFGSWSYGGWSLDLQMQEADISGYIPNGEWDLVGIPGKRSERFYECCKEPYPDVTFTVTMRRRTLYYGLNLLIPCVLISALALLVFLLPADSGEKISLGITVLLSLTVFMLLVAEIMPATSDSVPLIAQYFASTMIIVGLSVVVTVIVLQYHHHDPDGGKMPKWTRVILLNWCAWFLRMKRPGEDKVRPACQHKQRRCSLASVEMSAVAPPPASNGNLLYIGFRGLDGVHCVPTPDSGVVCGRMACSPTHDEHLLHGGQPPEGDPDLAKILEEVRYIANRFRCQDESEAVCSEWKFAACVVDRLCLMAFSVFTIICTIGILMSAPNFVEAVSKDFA
Text for D2R: Generation of N-terminally EGFP-tagged mouse CB1R was previously described[8]. The coding sequence of monoacylglycerol lipase (MAGL) was amplified with mMGL_fw and mMGL_rev primers using a mouse brain cDNA library as a template. The PCR product was digested with HindIII and BamHI enzymes and cloned into pcDNA3.1 backbone. GFP-MGL was constructed by subcloning the open reading frame of MAGL into pAcGFP1-C1 vector following HindIII/BamHI digestion. […] The amplified DNA was inserted into pcDNA3.1 vector between the BamHI and XhoI restriction sites. TMEM35 in pCMV6 vector was from Origene (RC209790). The pGloSensor™-22F cAMP plasmid was from Promega. The plasmid encoding CB1R was generated by inserting the coding sequence of human CB1R into pCAGIG vector. The plasmids encoding Gi1 subunits (αi1, β1, and γ2) were from the cDNA Resource Center. We created Gαi1–Rluc8 using overlap exchange PCR, Rluc8 was inserted into Gαi1 between residue 91 and 92 with SGGGGS linkers similar to a previous design[77]. Venus–β1 was created by replacing YFP with Venus in YFP–β1 using restriction digestion, YFP–β1 plasmid construct was described previously[78].
For microscopic experiments, cells were seeded one day before transfection on poly-D-lysine-coated coverslips in 24-well culture plates. Coverslips were cleaned with extensive 2 M NaOH and 70% ethanol washing steps prior to use. Transient transfection was done with Lipofectamine 2000 (Thermo Fischer) according to the manufacturer’s protocol. After transfection (20–28 h), pharmacological treatment was applied and then combined with immunolabeling. The full procedure was optimized for each investigated protein. In the case of D3R-, CB1R-, and α7-nAchR-expressing cells, all labeling and washing steps were executed in Hanks’ balanced salt solution (Sigma-Aldrich H6648) on live cells, and in Dulbecco’s Phosphate Buffered Saline (Corning, 21-031-CV) on fixed cells. The labeling steps with antibodies, ligands, or fixatives were followed by three washing steps. […] Unless otherwise stated, we used CF568-labeled secondary antibodies.
The HA-D3R-expressing cells were live-stained with anti-HA primary and secondary antibodies for 10 min at room temperature. […] Cells were fixed in 4% PFA for 10 min before imaging. For Supplementary Fig. S5g, Cy5-labeled secondary antibody was applied, without fluorescent ligand treatment. For fluo-cannabinoid binding experiments, all steps were executed at room temperature. […] MAGL pharmacological labeling was performed in culture medium in a 5% CO2 atmosphere at 37 °C. […] Before immunolabeling, cells were washed with 100% methanol three times for 10 min and were blocked with 5% normal donkey serum (NDS) in 0.1 M phosphate buffer (PB; pH 7.4), for 30 min. Anti-GFP immunolabeling was done in 0.1 M PB and immunostained cells were postfixed with 4% PFA before imaging. In the case of α7-nAChR experiments, its chaperon protein, NACHO (TMEM35) was co-transfected in a 10 to 1 receptor:chaperon ratio in order to enhance cell-surface expression of the ion channel[79]. MLA pretreatment and Alexa647-bungarotoxin labeling were done at 4 °C for 20 min. After pharmacological labeling, the cells were fixed with 4% PFA, and subsequent anti-HA-immunolabeling was done at room temperature. Immunolabeling was followed by post-fixation.
To analyze the number of localization points (LPs) in membranes of cultured cells, we merged the dSTORM images obtained from pharmacolabeling (PharmacoSTORM) and immunolabeling (ImmunoSTORM). […]

With `CN(C)C(=O)N[C@H]1CC[C@H](CCN2CCN(c3cccc(Cl)c3Cl)CC2)CC1` [cariprazine], the “effect on fluo-cariprazine signal in the hilar subregion of the Islands of Calleja” value in test [1] is reported as “completely eliminated”. The “Fluo-CAR STORM density (LPs/μm2)” value in test [1] (slices with 30 nM Fluo-CAR, Islands of Calleja, per animal) is 0.8583 LPs/μm2 and 0.5531 LPs/μm2 and 1.2207 LPs/μm2 and 0.9766 LPs/μm2.

As usually defined, the EC50 is the concentration needed to bring the measured effect to its halfway point. As to `CCCN1CCO[C@@H]2c3cc(O)ccc3OC[C@H]21` [PD128907], the “Gi1-BRET response (%, norm. to pretreatment)” value on D3R (PD 128907 10-6.5 M, vehicle pretreatment) is 106.065% and 96.3019% and 97.7639%; on D3R (PD 128907 10-7.5 M, vehicle pretreatment), 94.4647% and 90.0327% and 83.0176%; on D3R (PD 128907 10-8.5 M, vehicle pretreatment), 62.6732% and 52.2099% and 77.0199%; on D3R (PD 128907 10-9.5 M, vehicle pretreatment), 23.5448% and 22.9857% and 15.0109%; on D3R (PD 128907 10^-6 M, vehicle pretreatment), 100%; on D3R (PD 128907 10^-7 M, vehicle pretreatment) it was 92.6877% and 91.1582% and 95.9579%. Moreover, the “Gi1-BRET response (%, norm. to pretreatment)” value at D3R (PD 128907 10^-8 M, vehicle pretreatment) was 89.6043% and 74.7508% and 92.6073%; at D3R (PD 128907 10^-9 M, vehicle pretreatment) it was 56.1354% and 47.8674% and 57.7701%. Further, the “TOP (best-fit), Gi1-BRET response” value at D3R (PD 128907, vehicle pretreatment) was 95,84%. Also, the “LOGEC50 (best-fit)” value at D3R (PD 128907, vehicle pretreatment, concentration in M) was -8,980. For the same compound, the EC50 on D3R (vehicle pretreatment, n = 3, read-out: EC50 of PD128907) came out at 1.05 nM.

Turning to `CN(CCCNC(=O)CCCCC[N+]1=C(/C=C/C=C/C=C2/N(C)c3ccc(S(=O)(=O)O)cc3C2(C)C)C(C)(C)c2cc(S(=O)(=O)[O-])ccc21)C(=O)N[C@H]1CC[C@@H](CCN2CCN(c3cccc(Cl)c3Cl)CC2)CC1` [fluo-cariprazine], on D2R, the “PharmacoSTORM LPs / ImmunoSTORM LPs (% of D3R), actual mean” value was 7,203%. For the same compound, the “PharmacoSTORM LPs / ImmunoSTORM LPs (% of D3R)” value on D2R (single experiments) is 3.466% and 8.432% and 4.243% and 12.6707%.

For `CCN1C[C@]2(COC(=O)c3ccccc3N3C(=O)C[C@H](C)C3=O)CC[C@H](OC)[C@@]34[C@@H]5C[C@H]6[C@H](OC)[C@@H]5[C@](O)(C[C@@H]6OC)[C@@](O)([C@@H](OC)[C@H]23)[C@@H]14` [methyllycaconitine], at α7-nAchR-HA, the “effect on PharmacoSTORM signal of Alexa647-α-bungarotoxin” value was “fully prevented”.

As usually defined, the IC50 is the point on the concentration scale where inhibition reaches its midpoint. As to `CN1/C(=C/C=C/C=C/C2=[N+](CCCCCC(=O)NCc3cn(CCOc4ccc(C(c5ccc(Cl)cc5)N5CCN(C(=O)OC(C(F)(F)F)C(F)(F)F)CC5)cc4)nn3)c3ccccc3C2(C)C)C(C)(C)c2ccccc21.[Cl-]` (centres unmarked) [DH-463], at MAGL, the “HILLSLOPE (best-fit)” value is given as -0,7836. The “MAGL activity (%), mean” value on MAGL (10^-5 M) is listed as 5.023%; at MAGL (10^-6 M), 10.8061%; at MAGL (10^-7 M) it was 27.8239%; at MAGL (10^-8 M), 51.3279%; at MAGL (10^-9 M), 91.5194%; at MAGL (10^-10 M) it was 105.132%. In addition, the “LOGIC50 (best-fit)” value on MAGL (concentration in M) is reported as -7,938. Further, the “BOTTOM (best-fit), MAGL activity” value at MAGL (log(inhibitor) vs. response, variable slope) is 7,823%. Also, the half-inhibitory concentration (IC50) on MAGL (read-out: IC50 (best-fit)) is 11.5 nM.

For orientation: Emax means the size of the effect at its maximum, as opposed to the concentration needed. Broadly, the Ki is a measure of affinity in units of concentration, obtained from inhibition or displacement. High values mean a looser hold on the target, low ones a stronger hold on the target. On to `CCCCCCC(C)(C)c1cc(O)c2c(c1)OC(C)(C)c1ccc(CNCCCCCCNC(=O)CCCCC[N+]3=C(/C=C/C=C/C=C4/N(C)c5ccc(S(=O)(=O)O)cc5C4(C)C)C(C)(C)c4cc(S(=O)(=O)[O-])ccc43)cc1-2` [fluo-cannabinoid], for which the “HILLSLOPE (best-fit)” value at CB1R [2] is on record as 0,9981. For the same compound, on CB1R [2], the “Span (best-fit), cAMP reduction” value is given as 37,53%. Further, the “cAMP reduction (%)” value is 31.4472% and 32.8666% and 33.3129% and 25.9155% and 23.0595% on CB1R [2] (10-6.5 M); -1.6297% and 1.0916% and -1.1492% and -4.3119% and 0.7084% on CB1R [2] (10-8.5 M); 35.6911% and 25.5164% and 35.8634% and 19.8904% and 28.6228% at CB1R [2] (10^-6 M); 0% on CB1R [2] (10^-9 M). At CB1R [2] (concentration in M), the “LOGEC50 (best-fit)” value is given as -7,482. Moreover, the Emax on CB1R [2] (in vitro cAMP assay on CB1R) is 36.1%. In addition, at CB1R [2] (setting [4]), the “BOTTOM (best-fit), cAMP reduction” value is -1,444%. For the same compound, the “TOP (best-fit), cAMP reduction” value on CB1R [2] (setting [4]) was 36,09%. In addition, the concentration for a half-maximal effect (EC50) on CB1R [2] (read-out: EC50 (best-fit)) was found to be 33 nM. This compound registered a Ki on CB1R [3] of 3.5 nM.

(Values after article PMC8586358 (Nature Communications, 2021).)
